In US9416141B2 (University of Washington through its Center for …, priority 2012, dated 2016):
Structures can show the parent of a compound that is named as a salt.

Test system: hair cells
Experiment: Hair cell toxicity assay in zebrafish (neomycin-induced hair cell death, DASPEI staining of neuromasts)
Format: in vivo
Details: Danio rerio; for Emax at 25 µM: maximum observed @ 25 μM test compound; for Emax at 25 µM / Emax at 2.8 µM / Emax at 8.3 µM: 200 micromolar neomycin, read-out: Max HC Protection (HCmax, % hair cell survival); for EC50: zebrafish larvae 5-7 dpf, 1 h pre-treatment, then 200 micromolar neomycin + test compound 30 min, read-out: HC50 (concentration that would produce 50% hair cell survival); for Emax at 2.8 µM: maximum observed @ 2.8 μM test compound; for Emax at 8.3 µM: maximum observed @ 8.3 μM test compound
In short: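 Zebrafish larvae 5-7 dpf pre-treated 1 h with compound (0.010-25 μM), then 30 min with 200 μM neomycin plus compound. DASPEI stained 10 neuromasts per fish, scored 0-2 (total 0-20), normalised to vehicle controls as % hair cell survival. HC50 linearly interpolated if survival reached ≥50%; HCmax is maximum survival.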

| SMILES | Emax at 25 µM | EC50 | Emax at 2.8 µM | Emax at 8.3 µM |
| --- | --- | --- | --- | --- |
| NC(=O)c1c(NC(=O)Nc2ccc(Cl)cc2)sc2c1CCN(CC(=O)O)C2 [Example 61, 2-{3-Carbamoyl-2-[3-(4-chlorophenyl)ureido]-4,5-dihydrothieno[2,3-c]pyridin-6(7H)-yl}acetic acid hydrochloride] | 24% | – | – | – |
| NC(=O)c1c(NC(=O)Nc2ccc(Cl)cc2)sc2c1CCN(CCN1CCOCC1)C2 [Example 46, 2-[3-(4-Chlorophenyl)ureido]-6-(2-morpholinoethyl)-4,5,6,7-tetrahydrothieno[2,3-c]pyridine-3-carboxamide trifluoroacetate] | 79% | > 10000 nM | – | – |
| COCCC[N+]1(C)CCc2c(sc(NC(=O)Nc3ccc(Cl)cc3)c2C(N)=O)C1 (stereo not shown) [Example 141, 3-Carbamoyl-2-[3-(4-chlorophenyl)ureido]-6-(3-methoxypropyl)-6-methyl-4,5,6,7-tetrahydrothieno[2,3-c]pyridin-6-ium iodide] | – | < 1000 nM | 77% | – |
| CCN1CCc2c(sc(NC(=O)Nc3ccc(Cl)cc3)c2C(=O)NCCN(C)C)C1 [Example 99, 2-[3-(4-Chlorophenyl)ureido]-N-[2-(dimethylamino)ethyl]-6-ethyl-4,5,6,7-tetrahydrothieno[2,3-c]pyridine-3-carboxamide dihydrochloride] | – | – | 18% | – |
| CCN1CCc2c(sc(NC(=O)Nc3ccc(Cl)cc3)c2C(=O)NCCO)C1 [Example 101, 2-[3-(4-Chlorophenyl)ureido]-6-ethyl-N-(2-hydroxyethyl)-4,5,6,7-tetrahydrothieno[2,3-c]pyridine-3-carboxamide hydrochloride] | 74% | 1000 to 10000 nM | – | – |
| CCN1CCc2c(sc(NC(=O)Nc3ccc(Cl)cc3Cl)c2C(N)=O)C1 [Example 229, 2-{[(2,4-dichlorophenyl)carbamoyl]amino}-6-ethyl-4H,5H,6H,7H-thieno[2,3-c]pyridine-3-carboxamide] | 54% | > 10000 nM | – | – |
| CC(C)(C)OC(=O)C1CC(N2CCc3c(sc(NC(=O)Nc4ccc(Cl)cc4)c3C(N)=O)C2)C1 (stereo not shown) [Example 22, tert-Butyl 3-{3-carbamoyl-2-[3-(4-chlorophenyl)ureido]-4,5-dihydrothieno[2,3-c]pyridin-6(7H)-yl}cyclobutanecarboxylate] | – | – | 22% | – |
| CCN1CCc2c(sc(NC(=O)Nc3cccc4c3ccn4C)c2C(N)=O)C1 [Example 84, 6-Ethyl-2-[3-(1-methyl-1H-indol-4-yl)ureido]-4,5,6,7-tetrahydrothieno[2,3-c]pyridine-3-carboxamide hydrochloride] | 4% | – | – | – |
| CN(C)C(=O)CC[N+]1(C)CCc2c(sc(NC(=O)Nc3ccc(Cl)cc3)c2C(N)=O)C1 (stereo not shown) [Example 194, 3-Carbamoyl-2-[3-(4-chlorophenyl)ureido]-6-[3-(dimethylamino)-3-oxopropyl]-6-methyl-4,5,6,7-tetrahydrothieno[2,3-c]pyridin-6-ium chloride] | – | – | 36% | – |
| NC(=O)CCN1CCc2c(sc(NC(=O)Nc3ccc(Cl)cc3)c2C(N)=O)C1 [Example 50, 6-(3-amino-3-oxopropyl)-2-[3-(4-chlorophenyl)ureido]-4,5,6,7-tetrahydrothieno[2,3-c]pyridine-3-carboxamide hydrochloride] | 82% | 1000 to 10000 nM | – | – |
| CCN1CCc2c(sc(NC(=O)Nc3ccc4ccccc4c3)c2C(N)=O)C1 [Example 223, 6-ethyl-2-{[(naphthalen-2-yl)carbamoyl]amino}-4H,5H,6H,7H-thieno[2,3-c]pyridine-3-carboxamide] | 104% | 1000 to 10000 nM | – | – |
| NC(=O)c1c(NC(=O)Nc2ccc(Cl)c3ccccc23)sc2c1CCN(CC1CCC1)C2 [Example 40, 2-[3-(4-Chloronaphthalen-1-yl)ureido]-6-(cyclobutylmethyl)-4,5,6,7-tetrahydrothieno[2,3-c]pyridine-3-carboxamide hydrochloride] | – | 1000 to 10000 nM | – | 62% |
| COC(=O)CCC[N+]1(C)CCc2c(sc(NC(=O)Nc3ccc(Cl)cc3)c2C(N)=O)C1 (stereo not shown) [Example 158, 3-Carbamoyl-2-[3-(4-chlorophenyl)ureido]-6-(4-methoxy-4-oxobutyl)-6-methyl-4,5,6,7-tetrahydrothieno[2,3-c]pyridin-6-ium iodide] | 80% | 1000 to 10000 nM | – | – |
| NC(=O)c1c(NC(=O)Nc2ccc3ccccc3c2)sc2c1CCN(CCCCO)C2 [Example 37, 6-(4-Hydroxybutyl)-2-[3-(naphthalen-2-yl)ureido]-4,5,6,7-tetrahydrothieno[2,3-c]pyridine-3-carboxamide hydrochloride] | 105% | 1000 to 10000 nM | – | – |
| CCN1C2CCC1c1sc(NC(=O)Nc3ccc(Cl)cc3)c(C(N)=O)c1C2 (racemic) [Example 133, (+/−)-2-[3-(4-Chlorophenyl)ureido]-9-ethyl-5,6,7,8-tetrahydro-4H-5,8-epiminocyclohepta[b]thiophene-3-carboxamide hydrochloride] | 76% | < 1000 nM | – | – |
| CC(C)N1CCc2c(sc(NC(=O)Nc3ccc(Cl)cc3)c2C(N)=O)C1 [Example 2, 2-[3-(4-Chlorophenyl)ureido]-6-isopropyl-4,5,6,7-tetrahydrothieno[2,3-c]pyridine-3-carboxamide hydrochloride] | 84% | 1000 to 10000 nM | – | – |
| CN(C)C1CCc2c(sc(NC(=O)Nc3ccc(Cl)cc3)c2C(N)=O)C1 (stereo not shown) [Example 42, 2-[3-(4-Chlorophenyl)ureido]-6-(dimethylamino)-4,5,6,7-tetrahydrobenzo[b]thiophene-3-carboxamide hydrochloride] | 90% | 1000 to 10000 nM | – | – |
| CC[N+]1(C)CCc2c(sc(NC(=O)Nc3ccc(Cl)cc3)c2C(=O)N2CCOCC2)C1 (stereo not shown) [Example 179, 2-[3-(4-Chlorophenyl)ureido]-6-ethyl-6-methyl-3-(morpholine-4-carbonyl)-4,5,6,7-tetrahydrothieno[2,3-c]pyridin-6-ium chloride] | – | – | – | 38% |
| CCN1CCc2c(sc(NC(=O)Nc3ccc(C(=O)OC(C)(C)C)cc3)c2C(N)=O)C1 [Example 29, tert-Butyl 4-[3-(3-carbamoyl-6-ethyl-4,5,6,7-tetrahydrothieno[2,3-c]pyridin-2-yl)ureido]benzoate] | 75% | 1000 to 10000 nM | – | – |
| CC(C)OC(=O)CCN1CCc2c(sc(NC(=O)Nc3ccc(Cl)cc3)c2C(N)=O)C1 [Example 54, Isopropyl 3-{3-carbamoyl-2-[3-(4-chlorophenyl)ureido]-4,5-dihydrothieno[2,3-c]pyridin-6(7H)-yl}propanoate hydrochloride] | 58% | 1000 to 10000 nM | – | – |
| CC(C)CN1CCc2c(sc(NC(=O)Nc3ccc(Cl)cc3)c2C(N)=O)C1 [Example 26, 2-[3-(4-Chlorophenyl)ureido]-6-isobutyl-4,5,6,7-tetrahydrothieno[2,3-c]pyridine-3-carboxamide hydrochloride] | – | 1000 to 10000 nM | – | 68% |
| NC(=O)c1c(NC(=O)Nc2ccc(Cl)cc2)sc2c1CC1CCC2N1 (single isomer, unassigned; (-)) [Example 129, (−)-2-[3-(4-Chlorophenyl)ureido]-5,6,7,8-tetrahydro-4H-5,8-epiminocyclohepta[b]thiophene-3-carboxamide hydrochloride] | – | < 1000 nM | 81% | – |
| COC(=O)CCCN1CCc2c(sc(NC(=O)Nc3ccc(Cl)cc3)c2C(N)=O)C1 [Example 20, Methyl 4-{3-carbamoyl-2-[3-(4-chlorophenyl)ureido]-4,5-dihydrothieno[2,3-c]pyridin-6(7H)-yl}butanoate hydrochloride] | 65% | 1000 to 10000 nM | – | – |
| CC(C)(C)CN1CCc2c(sc(NC(=O)Nc3ccc(Cl)cc3)c2C(N)=O)C1 [Example 27, 2-[3-(4-Chlorophenyl)ureido]-6-neopentyl-4,5,6,7-tetrahydrothieno[2,3-c]pyridine-3-carboxamide hydrochloride] | 79% | 1000 to 10000 nM | – | – |
| CC(C)(C)C[N+]1(C)CCc2c(sc(NC(=O)Nc3ccc4ccccc4c3)c2C(N)=O)C1 (stereo not shown) [Example 193, 3-Carbamoyl-6-methyl-2-(3-naphthalen-2-ylureido)-6-neopentyl-4,5,6,7-tetrahydrothieno[2,3-c]pyridin-6-ium trifluoroacetate] | 98% | < 1000 nM | – | – |
| C[N+]1(CC(F)(F)F)CCc2c(sc(NC(=O)Nc3ccc(Cl)cc3)c2C(N)=O)C1 (stereo not shown) [Example 192, 3-Carbamoyl-2-[3-(4-chlorophenyl)ureido]-6-methyl-6-(2,2,2-trifluoroethyl)-4,5,6,7-tetrahydrothieno[2,3-c]pyridin-6-ium iodide] | 88% | < 1000 nM | – | – |
| CCN1Cc2sc(NC(=O)Nc3ccc(Cl)cc3)c(C(N)=O)c2C1 [Example 28, 2-[3-(4-Chlorophenyl)ureido]-5-ethyl-5,6-dihydro-4H-thieno[2,3-c]pyrrole-3-carboxamide hydrochloride] | – | 1000 to 10000 nM | – | 58% |
| CC(C)C[N+]1(C)CCc2c(sc(NC(=O)Nc3ccc(Cl)cc3)c2C(N)=O)C1 (stereo not shown) [Example 135, 3-carbamoyl-2-[3-(4-chlorophenyl)ureido]-6-isobutyl-6-methyl-4,5,6,7-tetrahydrothieno[2,3-c]pyridin-6-ium iodide] | 107% | < 1000 nM | – | – |
| CCN1CCc2c(sc(N(CC)C(=O)Nc3ccc(Cl)cc3)c2C(N)=O)C1 [Example 113, 2-[3-(4-chlorophenyl)-1-ethylureido]-6-ethyl-4,5,6,7-tetrahydrothieno[2,3-c]pyridine-3-carboxamide hydrochloride] | – | – | 12% | – |
| CC(C)(C)CN1CCc2c(sc(NC(=O)Nc3ccc(Cl)c4ccccc34)c2C(N)=O)C1 [Example 41, 2-[3-(4-Chloronaphthalen-1-yl)ureido]-6-neopentyl-4,5,6,7-tetrahydrothieno[2,3-c]pyridine-3-carboxamide hydrochloride] | – | – | – | 39% |
